# In patent US8367086B1, “Process and product for inhibiting or preventing bacterial infections” (S.S. Steiner, Inc., priority 2004, dated 2013):
# Columns and labels:
# Type in all cases: cell-based
# [1] = tested on: Staphlococcus saprophyticus; assay: paper disc diffusion susceptibility (Kirby-Bauer) method; conditions: for zone of inhibition, Xanthohumol Avg / zone of inhibition, Xanthohumol Expt #1 / zone of inhibition, Xanthohumol Expt #2 / zone of inhibition, β-acid Avg / zone of inhibition, β-acid Exp #1: S. saprophyticus; for zone of inhibition, Experiment 1 Control / zone of inhibition, Experiment 2 Control: antibiotic disc alone; for zone of inhibition, Experiment 1 Control / zone of inhibition, Experiment 2 Control / zone of inhibition, Experiment 1 0.2 μg/ml β-resin / zone of inhibition, Experiment 2 0.2 μg/ml β-resin: 24 hours; for zone of inhibition, Experiment 1 0.2 μg/ml β-resin / zone of inhibition, Experiment 2 0.2 μg/ml β-resin: antibiotic disc with 0.2 μg/ml β-resin in the agar
# Text: (§1) The first test method to be applied was the paper disc diffusion susceptibility method. In this method a filter paper disc impregnated with a chemical is placed on agar, and the chemical will diffuse from the disc into the agar. If an organism is placed on the agar, it will not grow in the area around the disc if it is susceptible to the chemical. This area of no growth around the disc is known as the zone of inhibition. This disc diffusion method for antibiotic susceptibility is known as the Kirby-Bauer method. In testing the effectiveness of various antibiotics, all factors, e.g., the agar utilized, the depth of the agar, the amount of organism used, and incubation conditions, are maintained constant for the various organisms and antibiotics being tested. […] The size of the zone of inhibition of the particular antimicrobial substance may also be influenced by the diffusion capability of that substance.
# (§2) In performing the disc diffusion method tests, a bacterial suspension having an inoculum density of approximately 1×10^8 CFU/ml (colony forming units) was added to 10 ml trypticase soy agar at 46° C. It was mixed thoroughly by vortexing and then poured into a plastic Petri dish. After hardening of the agar, filter paper discs (φ7 mm.) made from Whatman filter paper No. 1 that had been impregnated by the manufacturer, Becton Dickinson, Inc., with the suitable antibiotic, were placed on the agar. In this series of tests the ability of each antibiotic per se to control the growth of the bacteria was measured.
# (§3) Another series of agar containing Petri dishes was then prepared using the same bacteria and density thereof as had been prepared for the prior test series. However, here hop compounds were also present in the agar. The hop extract, either lupulone, humulone or xanthohumol, was dissolved in ethanol. While certain of the hop components are only slightly soluble in water, they are very soluble in ethanol. An ethanol control was prepared in the same way.
# (§4) The size of the inhibition zones was measured to the nearest mm.
# (§5) The concentration of β-acid and xanthohumol is set forth in μg/ml. The zone of inhibition was measured in centimeters. […]
# [2] = tested on: S. salivarius; assay: paper disc diffusion susceptibility method
# Text: as §1, §2, §3, §4, §5
# [3] = tested on: B. subtilis; assay: paper disc diffusion susceptibility method
# Text: as §1, §2, §3, §4, §5
# [4] = tested on: B. megaterium; assay: paper disc diffusion susceptibility method
# Text: as §1, §2, §3, §4, §5
# [5] = tested on: S. salivarius; assay: minimum inhibitory concentration (MIC) method; conditions: 37° C. 24 hours
# Description: (§6) Another method of determining antimicrobial activity is to assess the Minimum inhibitory concentration (MIC) of the composition under test. […] Thereafter, increased concentrations will have a limiting effect on growth, until the concentration is reached where no growth relative to the control is observed. That point of no growth is the minimum inhibitory concentration. […] A positive control with the bacterium alone was prepared as well as an ethanol control. The tubes were incubated at 37° C. for 24 hours and growth of the bacterium was determined by observing the change in turbidity.
# [6] = tested on: B. megaterium; assay: minimum inhibitory concentration (MIC) method; conditions: 37° C. 24 hours
# Description: as §6
# [7] = tested on: S. saprophyticus; assay: minimum inhibitory concentration (MIC) method; conditions: 37° C. 24 hours
# Description: as §6, with “turbidity. […] Since the filing of the original application Ser. […] Pseudomonas fluorescens, Pseudomonas aeruginosa, Proteus vulgaris, Serratia marcescens, Proteus mirabilis and Enterobacter clocae.” for “turbidity.”
# [8] = ciprofloxacin 5 μg on disc, xanthohumol 0 μg/ml
# [9] = ciprofloxacin 5 μg on disc, xanthohumol 3 μg/ml
# [10] = ciprofloxacin 5 μg on disc, xanthohumol 10 μg/ml
# [11] = tobramycin 10 μg on disc, xanthohumol 0 μg/ml
# [12] = tobramycin 10 μg on disc, xanthohumol 3 μg/ml
# [13] = tobramycin 10 μg on disc, β-acid 0 μg/ml
# [14] = tobramycin 10 μg on disc, β-acid 3 μg/ml
# [15] = tobramycin 10 μg on disc, xanthohumol 10 μg/ml
# [16] = tobramycin 10 μg on disc, β-acid 30 μg/ml
compound,measurement,setting,value
"O=C(O)c1cn(C2CC2)c2cc(N3CCNCC3)c(F)cc2c1=O [ciprofloxacin, 1-cyclopropyl-6-fluoro-1,4-dihyro-4-oxo-7-(1-piperaznyl)-3-quinolinecarboxylic acid]","zone of inhibition, Xanthohumol Avg",[1]; [8],0.95 centimeters
same,"zone of inhibition, Xanthohumol Expt #1",[1]; [8],0.9 centimeters
same,"zone of inhibition, Xanthohumol Expt #2",[1]; [8],1.0 centimeters
same,"zone of inhibition, Xanthohumol Avg",[1]; [9],1.5 centimeters
same,"zone of inhibition, Xanthohumol Expt #1",[1]; [9],1.3 centimeters
same,"zone of inhibition, Xanthohumol Expt #2",[1]; [9],1.7 centimeters
same,"zone of inhibition, Xanthohumol Avg",[2]; [8],0.8 centimeters
same,"zone of inhibition, Xanthohumol Expt #1",[2]; [8],0.8 centimeters
same,"zone of inhibition, Xanthohumol Expt #2",[2]; [8],0.8 centimeters
same,"zone of inhibition, Xanthohumol Avg",[2]; [10],2.0 centimeters
same,"zone of inhibition, Xanthohumol Expt #1",[2]; [10],1.9 centimeters
same,"zone of inhibition, Xanthohumol Expt #2",[2]; [10],2.1 centimeters
same,"zone of inhibition, Xanthohumol Avg",[3]; [8],1.0 centimeters
same,"zone of inhibition, Xanthohumol Expt #1",[3]; [8],1.1 centimeters
same,"zone of inhibition, Xanthohumol Expt #2",[3]; [8],0.9 centimeters
same,"zone of inhibition, Xanthohumol Avg",[3]; [9],1.85 centimeters
same,"zone of inhibition, Xanthohumol Expt #1",[3]; [9],2.0 centimeters
same,"zone of inhibition, Xanthohumol Expt #2",[3]; [9],1.7 centimeters
same,"zone of inhibition, Xanthohumol Avg",[4]; [8],0.75 centimeters
same,"zone of inhibition, Xanthohumol Expt #1",[4]; [8],0.8 centimeters
same,"zone of inhibition, Xanthohumol Expt #2",[4]; [8],0.7 centimeters
same,"zone of inhibition, Xanthohumol Avg",[4]; [9],1.75 centimeters
same,"zone of inhibition, Xanthohumol Expt #1",[4]; [9],1.6 centimeters
same,"zone of inhibition, Xanthohumol Expt #2",[4]; [9],1.9 centimeters
NC[C@H]1O[C@H](O[C@H]2[C@H](O)[C@@H](O[C@H]3O[C@H](CO)[C@@H](O)[C@H](N)[C@H]3O)[C@H](N)C[C@@H]2N)[C@H](N)C[C@@H]1O [tobramycin],"zone of inhibition, Xanthohumol Avg",[1]; [11],0.95 centimeters
same,"zone of inhibition, Xanthohumol Expt #1",[1]; [11],0.9 centimeters
same,"zone of inhibition, Xanthohumol Expt #2",[1]; [11],1.0 centimeters
same,"zone of inhibition, Xanthohumol Avg",[1]; [12],1.5 centimeters
same,"zone of inhibition, Xanthohumol Expt #1",[1]; [12],1.5 centimeters
same,"zone of inhibition, Xanthohumol Expt #2",[1]; [12],1.5 centimeters
same,"zone of inhibition, β-acid Avg",[1]; [13],0.9 centimeters
same,"zone of inhibition, β-acid Exp #1",[1]; [13],0.9 centimeters
same,"zone of inhibition, β-acid Avg",[1]; [14],1.6 centimeters
same,"zone of inhibition, β-acid Exp #1",[1]; [14],1.6 centimeters
same,"zone of inhibition, Xanthohumol Avg",[2]; [11],0.55 centimeters
same,"zone of inhibition, Xanthohumol Expt #1",[2]; [11],0.6 centimeters
same,"zone of inhibition, Xanthohumol Expt #2",[2]; [11],0.5 centimeters
same,"zone of inhibition, Xanthohumol Avg",[2]; [15],1.35 centimeters
same,"zone of inhibition, Xanthohumol Expt #1",[2]; [15],1.4 centimeters
same,"zone of inhibition, Xanthohumol Expt #2",[2]; [15],1.3 centimeters
same,"zone of inhibition, β-acid Avg",[2]; [13],0.55 centimeters
same,"zone of inhibition, β-acid Exp #1",[2]; [13],0.6 centimeters
same,"zone of inhibition, β-acid Exp #2",[2]; [13],0.5 centimeters
same,"zone of inhibition, β-acid Avg",[2]; [16],0.65 centimeters
same,"zone of inhibition, β-acid Exp #1",[2]; [16],0.7 centimeters
same,"zone of inhibition, β-acid Exp #2",[2]; [16],0.6 centimeters
same,"zone of inhibition, Xanthohumol Avg",[3]; [11],1.0 centimeters
same,"zone of inhibition, Xanthohumol Expt #1",[3]; [11],1.1 centimeters
same,"zone of inhibition, Xanthohumol Expt #2",[3]; [11],0.9 centimeters
same,"zone of inhibition, Xanthohumol Avg",[3]; [12],1.5 centimeters
same,"zone of inhibition, Xanthohumol Expt #1",[3]; [12],1.6 centimeters
same,"zone of inhibition, Xanthohumol Expt #2",[3]; [12],1.4 centimeters
same,"zone of inhibition, β-acid Avg",[3]; [13],1.0 centimeters
same,"zone of inhibition, β-acid Exp #1",[3]; [13],1.1 centimeters
same,"zone of inhibition, β-acid Exp #2",[3]; [13],0.9 centimeters
same,"zone of inhibition, β-acid Avg",[3]; [14],1.3 centimeters
same,"zone of inhibition, β-acid Exp #1",[3]; [14],1.4 centimeters
same,"zone of inhibition, β-acid Exp #2",[3]; [14],1.2 centimeters
same,"zone of inhibition, Xanthohumol Avg",[4]; [11],0.7 centimeters
same,"zone of inhibition, Xanthohumol Expt #1",[4]; [11],0.8 centimeters
same,"zone of inhibition, Xanthohumol Expt #2",[4]; [11],0.6 centimeters
same,"zone of inhibition, Xanthohumol Avg",[4]; [12],1.05 centimeters
same,"zone of inhibition, Xanthohumol Expt #1",[4]; [12],1.1 centimeters
same,"zone of inhibition, Xanthohumol Expt #2",[4]; [12],1.0 centimeters
same,"zone of inhibition, β-acid Avg",[4]; [13],0.7 centimeters
same,"zone of inhibition, β-acid Exp #1",[4]; [13],0.8 centimeters
same,"zone of inhibition, β-acid Exp #2",[4]; [13],0.6 centimeters
same,"zone of inhibition, β-acid Avg",[4]; [14],0.95 centimeters
same,"zone of inhibition, β-acid Exp #1",[4]; [14],1.1 centimeters
same,"zone of inhibition, β-acid Exp #2",[4]; [14],0.8 centimeters
neomycin,"zone of inhibition, Experiment 1 Control",[1],23 mm
same,"zone of inhibition, Experiment 2 Control",[1],26 mm
same,"zone of inhibition, Experiment 1 0.2 μg/ml β-resin",[1],25 mm
same,"zone of inhibition, Experiment 2 0.2 μg/ml β-resin",[1],24 mm
penicillin,change of zone of inhibition when lupulone was added,"[1]; Experiment 1, 0.2 μg/ml β-resin versus antibiotic alone",decline
same,"zone of inhibition, Experiment 1 Control",[1],41 mm
same,"zone of inhibition, Experiment 2 Control",[1],37 mm
same,"zone of inhibition, Experiment 1 0.2 μg/ml β-resin",[1],39 mm
same,"zone of inhibition, Experiment 2 0.2 μg/ml β-resin",[1],35 mm
polymyxin B,"MIC, agent alone",[5]; exp 1,>100 µg/mL
same,"MIC, agent alone",[5]; exp 2,>100 µg/mL
same,"MIC, agent alone",[6]; exp 1,>100 µg/mL
same,"MIC, agent alone",[6]; exp 2,>100 µg/mL
same,"zone of inhibition, Experiment 1 Control",[1],0 mm
same,"zone of inhibition, Experiment 2 Control",[1],0 mm
same,"zone of inhibition, Experiment 1 Control",[1]; listed as polymyxin B,no inhibition zone whatsoever
same,"zone of inhibition, Experiment 2 Control",[1]; listed as polymyxin B,zero
same,"zone of inhibition, Experiment 1 0.2 μg/ml β-resin",[1],9 mm
same,"zone of inhibition, Experiment 2 0.2 μg/ml β-resin",[1],8 mm
same,"MIC, agent alone",[7]; exp 1,>100 µg/mL
same,"MIC, agent alone",[7]; exp 2,>100 µg/mL
